≈ marks a conversion by molar mass, not a printed value. Where two headings read alike, the source gives them in different places.
Tests used:
[1] = Lipophilicity determination by RP-HPLC (capacity factor k / log k, distributive π parameters); assay type: physicochemical; settings: for log k: RP-HPLC, C18, MeOH 70%/H2O 30%, isocratic; for π determined Ph: distributive parameter of phenyl substituents; for π determined Ph / π determined Pyr: calculated from log k; for π determined Pyr: distributive parameter of pyrazine substituents
Description: The procedure was performed under isocratic conditions with methanol as an organic modifier in the mobile phase using an end-capped non-polar C18 stationary RP column. The results are shown in Table 1 and illustrated in Figure 2. Waters Alliance 2695 XE HPLC separation module and Waters Photodiode Array Detector 2996 (Waters Corp., Milford, MA, USA) were used. Waters Symmetry® C18 5 μm, 4.6 ° 250 mm, Part No. WAT054275 (Waters Corp., Milford, MA, USA) chromatographic column was used. The HPLC separation process was monitored by Empower™ 2 Chromatography Data Software, Waters 2009 (Waters Corp., Milford, MA, USA). The mixture of MeOH (HPLC grade, 70%) and H2O (HPLC–Mili-Q Grade, 30%) was used as a mobile phase. The total flow rate of the column was 1.0 mL/min, injection volume 30 μL, column temperature 30 °C and sample temperature 10 °C were used. The detection wavelength of 210 nm was chosen. The KI methanolic solution was used for the dead time (tD) determination. Retention times (tR) were measured in minutes. The capacity factors k were calculated using the Empower™ 2 Chromatography Data Software according to formula k = (tR - tD)/tD, where tR is the retention time of the solute, whereas tD denotes the dead time obtained using an unretained analyte. Log k, calculated from the capacity factor k, is used as the lipophilicity index converted to log P scale. Distributive π parameters characterizing lipophilicity of the individual substituents were calculated according to the formula π = log kS – log kU, where log kS is the determined capacity factor logarithm of the individual substituted compounds, whereas log kU denotes the determined capacity factor logarithm of the unsubstituted compound, it means π = 0.

[2] = system: M. tuberculosis H37Rv (ATCC27294); experiment: In vitro antimycobacterial primary screening (TAACF, BACTEC 460 / MABA); assay type: cell-based; settings: Mycobacterium tuberculosis, read-out: Antimycobacterial evaluation Inhibition
Description: All compounds were assayed in vitro against M. tuberculosis H37Rv. […] None of the tested derivatives overcame this limit, see Table 2.
Antimycobacterial evaluation was carried out in the tuberculosis antimicrobial acquisition and coordinating facility (TAACF), Southern Research Institute, Birmingham, AL, U.S.A., which is a part of the National Institutes of Health (NIH). Primary screening of all compounds was conducted at 6.25 µg/mL against M. tuberculosis H37Rv (ATCC27294) in BACTEC 12B medium using both BACTEC 460 radiometric system and the Microplate Alamar Blue Assay (MABA). For the results see Table 2.

[3] = system: Trichophyton mentagrophytes 445; experiment: In vitro antifungal susceptibility testing (microdilution broth method); assay type: cell-based; settings: T. mentagrophytes, MIC for moulds determined as IC50 value; for MIC: Trichophyton mentagrophytes, 445, read-out: Antifungal susceptibility MIC
[4] = system: photosynthetic electron transport (PET) in spinach chloroplasts; experiment: Inhibition of photosynthetic electron transport (PET) in spinach chloroplasts (DCPIP photoreduction); assay type: biochemical, Spinacia oleracea L.
Description: The activity of the majority of the studied compounds was moderate or low relative to the standard. Chloroplasts were prepared from spinach (Spinacia oleracea L.) according to Masarovičová and Kráľová [26]. […] [27], and the rate of photosynthetic electron transport was monitored as a photoreduction of DCPIP. The measurements were carried out in phosphate buffer (0.02 mol/L, pH 7.2) containing sucrose (0.4 mol/L), MgCl2 (0.005 mol/L) and NaCl (0.015 mol/L). The chlorophyll content was 30 mg/L in these experiments and the samples were irradiated (~100 W/m^2) from 10 cm distance with a halogen lamp (250 W) using a 4 cm water filter to prevent warming of the samples (suspension temperature 22 °C). The studied compounds were dissolved in DMSO due to their limited water solubility. […] The inhibitory efficiency of the studied compounds was manifested by IC50 values, i.e. by molar concentration of the compounds causing 50% decrease in the […] relative to the untreated control.

[5] = parameters: method as in PMID 1151976, doi:10.1002/9780470171912.ch3; settings: Hammett's constant of R3 phenyl substituent; cited from earlier work

Structure (SMILES): O=C(Nc1cccc(Cl)c1)c1cnccn1 [Compound 1, Pyrazine-2-carboxylic acid (3-chlorophenyl)amide]
- log k [1]: 0.4914
- π determined Ph [1]: 0.08
- π determined Pyr [1]: 0.00
- inhibition at 6.25 µg/mL [2]: 14%
- MIC ([3]; after 72 h): 500 µM (≈ 117 µg/mL)
- MIC ([3]; after 120 h): > 500 µM
- IC50 [4]: 290 µM
- σ [5]: 0.373

Structure (SMILES): O=C(Nc1cccc(Cl)c1)c1cncc(Cl)n1 [Compound 2, 6-Chloropyrazine-2-carboxylic acid (3-chlorophenyl)amide]
- log k [1]: 0.7864
- π determined Ph [1]: 0.10
- π determined Pyr [1]: 0.30
- inhibition at 6.25 µg/mL [2]: 14%
- MIC ([3]; after 72 h): 125 µM (≈ 33.5 µg/mL)
- MIC ([3]; after 120 h): 125 µM (≈ 33.5 µg/mL)
- IC50 [4]: 262 µM
- σ [5]: 0.373

Structure (SMILES): CC(C)(C)c1cnc(C(=O)Nc2cccc(Cl)c2)cn1 [Compound 3, 5-tert-Butylpyrazine-2-carboxylic acid (3-chlorophenyl)amide]
- log k [1]: 1.0996
- inhibition at 6.25 µg/mL [2]: 0%
- MIC ([3]; after 72 h): > 250 µM
- MIC ([3]; after 120 h): > 250 µM
- IC50 [4]: 95.5 µM
- σ [5]: 0.373

Structure (SMILES): CC(C)(C)c1ncc(C(=O)Nc2cccc(Cl)c2)nc1Cl [Compound 4, 5-tert-Butyl-6-chloropyrazine-2-carboxylic acid (3-chlorophenyl)amide]
- log k [1]: 1.4896
- π determined Ph [1]: 0.25
- π determined Pyr [1]: 1.00
- inhibition at 6.25 µg/mL [2]: 0%
- MIC ([3]; after 72 h): > 250 µM
- MIC ([3]; after 120 h): > 250 µM
- IC50 [4]: 101 µM
- σ [5]: 0.373

Structure (SMILES): O=C(Nc1ccc(Cl)cc1)c1cnccn1 [Compound 5]
- log k [1]: 0.4987
- π determined Ph [1]: 0.09
- π determined Pyr [1]: 0.00
- inhibition at 6.25 µg/mL [2]: 4%
- MIC ([3]; after 72 h): > 250 µM
- MIC ([3]; after 120 h): > 250 µM
- IC50 [4]: 1520 µM
- σ [5]: 0.227

Structure (SMILES): O=C(Nc1ccc(Cl)cc1)c1cncc(Cl)n1 [Compound 6, 6-chloro-N-(4-chlorophenyl)pyrazine-2-carboxamide]
- log k [1]: 0.8185
- π determined Ph [1]: 0.13
- π determined Pyr [1]: 0.32
- inhibition at 6.25 µg/mL [2]: 65%
- MIC ([3]; after 72 h): > 500 µM
- MIC ([3]; after 120 h): > 500 µM
- IC50 [4]: 486 µM
- σ [5]: 0.227

Structure (SMILES): CC(C)(C)c1cnc(C(=O)Nc2ccc(Cl)cc2)cn1 [Compound 7]
- log k [1]: 1.1043
- π determined Ph [1]: 0.16
- π determined Pyr [1]: 0.61
- inhibition at 6.25 µg/mL [2]: 0%
- MIC ([3]; after 72 h): > 250 µM
- MIC ([3]; after 120 h): > 250 µM
- σ [5]: 0.227

Structure (SMILES): CC(C)(C)c1ncc(C(=O)Nc2ccc(Cl)cc2)nc1Cl [Compound 8, 6-chloro-5-tert-butyl-N-(4-chlorophenyl)pyrazine-2-carboxamide]
- log k [1]: 1.5015
- π determined Ph [1]: 0.26
- π determined Pyr [1]: 1.00
- inhibition at 6.25 µg/mL [2]: 24%
- MIC ([3]; after 72 h): > 250 µM
- MIC ([3]; after 120 h): > 250 µM
- IC50 [4]: 43 µM
- σ [5]: 0.227

Structure (SMILES): O=C(Nc1c(Cl)cccc1Cl)c1cnccn1 [Compound 9, N-(2,6-dichlorophenyl)pyrazine-2-carboxamide]
- log k [1]: 0.6656
- π determined Ph [1]: 0.25
- π determined Pyr [1]: 0.00
- inhibition at 6.25 µg/mL [2]: 0%
- MIC ([3]; after 72 h): > 500 µM
- MIC ([3]; after 120 h): > 500 µM
- σ [5]: 0.40

Structure (SMILES): O=C(Nc1c(Cl)cccc1Cl)c1cncc(Cl)n1 [Compound 10, 6-Chloro-N-(2,6-dichlorophenyl)pyrazine-2-carboxamide]
- log k [1]: 0.9456
- inhibition at 6.25 µg/mL [2]: 0%
- MIC ([3]; after 72 h): > 250 µM
- MIC ([3]; after 120 h): > 250 µM
- IC50 [4]: 829 µM
- σ [5]: 0.40

Structure (SMILES): CC(C)(C)c1cnc(C(=O)Nc2c(Cl)cccc2Cl)cn1 [Compound 11, 5-tert-Butyl-N-(2,6-dichlorophenyl)pyrazine-2-carboxamide]
- log k [1]: 1.2802
- π determined Ph [1]: 0.34
- π determined Pyr [1]: 0.61
- inhibition at 6.25 µg/mL [2]: 0%
- MIC ([3]; after 72 h): 250 µM (≈ 81.1 µg/mL)
- MIC ([3]; after 120 h): 250 µM (≈ 81.1 µg/mL)
- IC50 [4]: 153 µM
- σ [5]: 0.40

Structure (SMILES): CC(C)(C)c1ncc(C(=O)Nc2c(Cl)cccc2Cl)nc1Cl [Compound 12, 5-tert-Butyl-6-chloro-N-(2,6-dichlorophenyl)pyrazine-2-carboxamide]
- log k [1]: 1.6631
- π determined Ph [1]: 0.42
- π determined Pyr [1]: 1.00
- inhibition at 6.25 µg/mL [2]: 0%
- MIC ([3]; after 72 h): 125 µM (≈ 44.8 µg/mL)
- MIC ([3]; after 120 h): 125 µM (≈ 44.8 µg/mL)
- IC50 [4]: 61 µM
- σ [5]: 0.40

Structure (SMILES): O=C(Nc1ccc(Cl)c(Cl)c1)c1cnccn1 [Compound 13]
- log k [1]: 0.6962
- π determined Ph [1]: 0.30
- π determined Pyr [1]: 0.00
- inhibition at 6.25 µg/mL [2]: 8%
- MIC ([3]; after 72 h): > 250 µM
- MIC ([3]; after 120 h): > 250 µM
- σ [5]: 0.60

Structure (SMILES): O=C(Nc1ccc(Cl)c(Cl)c1)c1cncc(Cl)n1 [Compound 14, 6-chloro-N-(3,4-dichlorophenyl)pyrazine-2-carboxamide]
- log k [1]: 0.9950
- π determined Ph [1]: 0.31
- π determined Pyr [1]: 0.28
- inhibition at 6.25 µg/mL [2]: 61%
- MIC ([3]; after 72 h): 125 µM (≈ 37.8 µg/mL)
- MIC ([3]; after 120 h): 250 µM (≈ 75.6 µg/mL)
- IC50 [4]: 105 µM
- σ [5]: 0.60

Structure (SMILES): CC(C)(C)c1cnc(C(=O)Nc2ccc(Cl)c(Cl)c2)cn1 [Compound 15]
- log k [1]: 1.3395
- π determined Ph [1]: 0.40
- π determined Pyr [1]: 0.62
- inhibition at 6.25 µg/mL [2]: 15%
- MIC ([3]; after 72 h): 125 µM (≈ 40.5 µg/mL)
- MIC ([3]; after 120 h): 125 µM (≈ 40.5 µg/mL)
- σ [5]: 0.60

Structure (SMILES): OC(Cn1cncn1)(Cn1cncn1)c1ccc(F)cc1F [FLU, fluconazole, reference compound]
- Antifungal susceptibility MIC ([3]; after 120 h): 3.91 µM
- MIC ([3]; after 72 h): 1.95 µM (≈ 0.597 µg/mL)
- MIC ([3]; after 120 h): 3.91 µM (≈ 1.2 µg/mL)

From paper PMC6259134, “Synthesis, Antimycobacterial, Antifungal and Photosynthesis-Inhibiting Activity of Chlorinated N-phenylpyrazine-2-carboxamides” (Molecules, 2010)
